One data set deals with T1, BRAF^V600E (Homo sapiens, UniProt P15056, V600E).
T1 construct: purchased Life Technologies
Description: BRAF^V600E kinase inhibition, Z'-LYTE. The following applies: for inhibition at 1 µM: 1000 nM; for inhibition at 1 µM / inhibition at 0.1 µM: average of two independent experiments; for inhibition at 0.1 µM: 100 nM. The format is biochemical. The procedure:
The experiments were performed according to the instructions of the manufacturer, and single point concentration testing with two independent data points (n = 2). […] The IC50 values were calculated from the inhibition curves from two separate experiments.

In the next data set the test system is A375. Nature of the data set: MTT anti-proliferative assay, A375. The format is cell-based. The conditions noted are these: Homo sapiens, A-375, 48 h.
For a further data set, the system named is HT-29. Nature of the data set: MTT anti-proliferative assay, HT-29. The format is cell-based. The conditions noted are these: Homo sapiens, 48 h. Background: Tetrazolium assays rely on reduction of a dye to a coloured formazan, in cell work by metabolically active cells.
The test system of another data set is PC-3. Nature of the data set: MTT anti-proliferative assay, PC-3. The class given is cell-based, human. The conditions noted are these: for IC50: Homo sapiens, PC-3, MTT, 48 h; for fold improvement in activity compared to Sorafenib, PC-3: PC-3, IC50 ratio to Sorafenib.
Another data set deals with A549. Description: MTT anti-proliferative assay, A549. The class given is cell-based, human. The conditions noted are these: for IC50: Homo sapiens, A549, MTT, 48 h.
Data set [1] is described as follows: MTT cytotoxic assay, normal cell line MDCK. The conditions noted are these: dog, MDCK cells (normal cell line).
Description: (§1) All cell lines were purchased from Cell Bank of China Science Academy (Shanghai, China). All chemicals and solvents were purchased from Sigma-Aldrich (St. Louis, MO, USA) or Gibco (Gibco BRL, Grand Island, NY, USA). The PC-3 and A375 cell lines was maintained in Dulbecco's modified eagle (DEME) medium supplement with 10% fetal bovine serum (FBS) and 1% penicillin–streptomycin. The others were cultured in Roswell Park Memorial Institute (RPMI) 1640 medium supplement with 10% fetal bovine serum (FBS) and 1% penicillin–streptomycin. Approximately 5 × 10^3 cells, suspended in medium, were plated into each well of a 96-well plate and grown at 37 °C in a humidified atmosphere with 5% CO2 for 24 h. The following day, various concentrations of tested compounds were added to the culture medium and incubated for 48 h. Fresh MTT was added to each well at the terminal concentration of 5 mg/mL in phosphate buffered saline (PBS), and incubated with cells at 37 °C for 4 h. The formazan crystals in each well were dissolved in 150 μL DMSO, and the absorbency at 570 nm was measured with an enzyme-linked immunosorbent assay plate reader. All of the compounds were tested three times in each of the cell lines.

The structures appear in SMILES notation.

For orientation: inhibition means the percentage by which the read-out fell short of the control. Low readings indicate a weak effect, high ones a strong effect. A word on the IC50: it is the concentration needed to halve the response being measured. Low values mean inhibition by little substance, high ones a need for much substance. The melting point is the temperature of the solid-liquid transition.

T1 sequence (P15056 whole entry V600E): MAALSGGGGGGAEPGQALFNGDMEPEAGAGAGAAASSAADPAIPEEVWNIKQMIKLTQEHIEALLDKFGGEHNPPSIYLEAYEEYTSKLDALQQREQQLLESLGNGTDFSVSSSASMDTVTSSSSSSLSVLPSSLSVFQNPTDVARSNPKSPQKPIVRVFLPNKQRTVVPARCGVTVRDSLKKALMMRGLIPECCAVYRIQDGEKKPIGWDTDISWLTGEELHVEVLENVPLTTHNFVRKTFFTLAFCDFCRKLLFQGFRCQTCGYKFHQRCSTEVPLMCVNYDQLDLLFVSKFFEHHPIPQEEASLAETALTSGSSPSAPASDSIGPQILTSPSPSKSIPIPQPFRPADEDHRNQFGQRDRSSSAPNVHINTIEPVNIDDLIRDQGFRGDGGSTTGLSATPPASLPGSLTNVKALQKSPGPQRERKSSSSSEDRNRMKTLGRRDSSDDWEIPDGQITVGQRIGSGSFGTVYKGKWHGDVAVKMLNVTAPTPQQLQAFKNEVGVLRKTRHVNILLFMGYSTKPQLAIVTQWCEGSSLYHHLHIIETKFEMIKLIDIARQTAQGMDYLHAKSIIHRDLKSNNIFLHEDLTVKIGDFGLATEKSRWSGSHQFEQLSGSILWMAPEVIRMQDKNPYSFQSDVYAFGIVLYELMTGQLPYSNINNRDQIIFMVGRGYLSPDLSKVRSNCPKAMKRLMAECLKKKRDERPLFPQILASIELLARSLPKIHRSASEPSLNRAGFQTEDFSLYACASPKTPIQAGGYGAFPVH
Description for A375: as §1
Description for A549: as §1
Description for HT-29: as §1
Description for PC-3: as §1

The molecule `Cc1cccc(NC(=O)Nc2ccc(Oc3ncnc4[nH]ncc34)cc2)c1` [Compound 1b, 1-(4-((1H-Pyrazolo[3,4-d]pyrimidin-4-yl)oxy)phenyl)-3-(m-tolyl)urea] displayed a melting point of 227.4 to 230 °C. Besides, 1 µM produced 46% inhibition against BRAF^V600E. Moreover, the IC50 in the data set with A375 is > 80 µM. In addition, in the data set on HT-29, the IC50 is > 80 µM. Further, the IC50 in the data set on PC-3 was > 80 µM. Also, the IC50 in the data set on A549 is 75.6 µM. In data set [1], the 50% inhibitory concentration (IC50) at 48 h is > 80 µM.
For `O=C(Nc1ccc(Oc2ncnc3[nH]ncc23)cc1)Nc1ccc(Cl)c(Cl)c1` [Compound 1c, 1-(4-((1H-Pyrazolo[3,4-d]pyrimidin-4-yl)oxy)phenyl)-3-(3,4-dichlorophenyl)urea], the melting point was in the range of 245 to 247.2 °C. At BRAF^V600E, this molecule yielded an inhibition at 0.1 µM of 27% and an inhibition at 1 µM of 83%. Also, it took 29.7 µM to reach half-maximal inhibition in the data set on A375 (IC50). Moreover, the IC50 in the data set on HT-29 came out at 15.2 µM. The molecule also showed an IC50 in the data set with PC-3 of 11.2 µM. Besides, in the data set on A549, the IC50 is 16.2 µM. For the same molecule, the IC50 at 48 h in data set [1] was 35.5 µM.
Molecule `O=C(Nc1ccc(Cl)cc1)Nc1ccc(Oc2ncnc3[nH]ncc23)cc1` [Compound 1d, 1-(4-((1H-Pyrazolo[3,4-d]pyrimidin-4-yl)oxy)phenyl)-3-(4-chlorophenyl)urea] gave an inhibition at 1 µM against BRAF^V600E of 51%. The IC50 in the data set on A375 is 78.8 µM; with HT-29, > 80 µM; in the data set with PC-3 it was 18.4 µM; in the data set on A549 it was > 80 µM. Moreover, the IC50 at 48 h in data set [1] was > 80 µM.
Consider `Cc1ccc(Cl)c(NC(=O)Nc2ccc(Oc3ncnc4[nH]ncc34)cc2)c1` [Compound 1f, 1-(4-((1H-Pyrazolo[3,4-d]pyrimidin-4-yl)oxy)phenyl)-3-(2-chloro-5-methylphenyl)urea], for which the melting point fell in the range of 230.2 to 232.4 °C. This molecule also displayed an inhibition at 1 µM against BRAF^V600E of 37%. Besides, the IC50 in the data set with A375 came to 62.3 µM. In the data set with HT-29, this molecule displayed an IC50 of 61.7 µM. Also, in the data set on PC-3, the half-maximal inhibitory concentration (IC50) worked out at 1.12 µM and the “fold improvement in activity compared to Sorafenib, PC-3” value came out at 12 fold. Also, the “fold improvement compared to Sorafenib, A549” value with A549 (A549, IC50 ratio to Sorafenib) stood at 2 fold. In the data set on A549, this molecule showed an IC50 of 5.24 µM. Moreover, the IC50 at 48 h in data set [1] was > 80 µM.
Take `O=C(Nc1ccc(Oc2ncnc3[nH]ncc23)cc1)Nc1cccc(Cl)c1` [Compound 1g, 1-(4-((1H-Pyrazolo[3,4-d]pyrimidin-4-yl)oxy)phenyl)-3-(3-chlorophenyl)urea]: the melting point is 234.8 to 236 °C. 1 µM produced 54% inhibition on BRAF^V600E. In the data set on A375, the IC50 was > 80 µM. In the data set with HT-29, the IC50 was > 80 µM. In the data set with PC-3, the IC50 was > 80 µM. In addition, 70.1 µM corresponded to half-maximal inhibition in the data set on A549 (IC50). In data set [1], the IC50 at 48 h was > 80 µM.
`O=C(Nc1ccc(Oc2ncnc3[nH]ncc23)cc1)Nc1cc(C(F)(F)F)ccc1Cl` [Compound 1i, 1-(4-((1H-Pyrazolo[3,4-d]pyrimidin-4-yl)oxy)phenyl)-3-(2-chloro-5-(trifluoromethyl)phenyl)urea] had a melting point of 239.2 to 240.3 °C. For the same molecule, on BRAF^V600E, the inhibition at 0.1 µM is 52% and the inhibition at 1 µM came to 83%. The molecule also came in with an IC50 with A375 of 26.9 µM. This molecule also came in with a half-maximal inhibitory concentration (IC50) in the data set on HT-29 of 62.4 µM. In the data set on PC-3, the IC50 amounted to 1.12 µM and the “fold improvement in activity compared to Sorafenib, PC-3” value is on record as 12 fold. Further, in the data set with A549, half-maximal inhibition (IC50) required 60.8 µM. In addition, in data set [1], the IC50 at 48 h was > 80 µM.
`O=C(Nc1ccc(Oc2ncnc3[nH]ncc23)cc1)Nc1cc(F)cc(C(F)(F)F)c1` [Compound 1j, 1-(4-((1H-Pyrazolo[3,4-d]pyrimidin-4-yl)oxy)phenyl)-3-(3-fluoro-5-(trifluoromethyl)phenyl)urea] showed a melting point of 249.2 to 250.6 °C. Further, on BRAF^V600E, at 0.1 µM the inhibition was 37% and the inhibition at 1 µM was 67%. In the data set on A375, the IC50 is 30.4 µM. The molecule further yielded an IC50 in the data set with HT-29 of 50.7 µM. For the same molecule, it took 46 µM to reach half-maximal inhibition in the data set on PC-3 (IC50). Moreover, in the data set with A549, the IC50 turned out to be 60.3 µM. Moreover, the IC50 at 48 h in data set [1] was > 80 µM.
As for `CCc1cccc(NC(=O)Nc2ccc(Oc3ncnc4[nH]ncc34)cc2)c1` [Compound 1l, 1-(4-((1H-Pyrazolo[3,4-d]pyrimidin-4-yl)oxy)phenyl)-3-(3-ethylphenyl)urea], the melting point was 219.5 to 221.5 °C. On BRAF^V600E, this molecule gave an inhibition at 0.1 µM of 60% and an inhibition at 1 µM of 69%. At BRAF^V600E (ten concentrations 1000 to 0.0508 nM, two independent experiments), this molecule came in with an IC50 of 0.0513 µM. This molecule yielded an IC50 with A375 of 75.6 µM. The half-inhibitory concentration (IC50) with HT-29 is 71.2 µM. In the data set on PC-3, the IC50 was > 80 µM. In addition, in the data set with A549, 19.9 µM corresponded to half-maximal inhibition (IC50). The IC50 at 48 h in data set [1] was > 80 µM.
`O=C(Nc1ccc(Oc2ncnc3[nH]ncc23)cc1)Nc1cccc([N+](=O)[O-])c1` [Compound 1m, 1-(4-((1H-Pyrazolo[3,4-d]pyrimidin-4-yl)oxy)phenyl)-3-(3-nitrophenyl)urea] returned a melting point of 229.2 to 231.4 °C. On BRAF^V600E, this molecule showed an inhibition at 0.1 µM of 3% and an inhibition at 1 µM of 62%. In the data set on A375, this molecule returned an IC50 of 64 µM. In the data set with HT-29, this molecule had an IC50 of 31.7 µM. Also, the IC50 in the data set with PC-3 turned out to be 23.4 µM. Further, in the data set on A549, the IC50 is > 80 µM. In addition, in data set [1], the IC50 at 48 h was > 80 µM.
In the case of `O=C(Nc1ccc(Oc2ncnc3[nH]ncc23)cc1)Nc1cc(C(F)(F)F)ccc1F` [Compound 1n, 1-(4-((1H-Pyrazolo[3,4-d]pyrimidin-4-yl)oxy)phenyl)-3-(2-fluoro-5-(trifluoromethyl)phenyl)urea], at BRAF^V600E, the inhibition at 0.1 µM is 30%. On BRAF^V600E, the inhibition at 1 µM came out at 87%. In addition, the IC50 stood at 5.39 µM with A375, 27.8 µM with HT-29, 40.3 µM in the data set on PC-3 and 32.1 µM with A549. For the same molecule, half-maximal inhibition in data set [1] (IC50 at 48 h) required 23.1 µM.
With `CSc1cccc(NC(=O)Nc2ccc(Oc3ncnc4[nH]ncc34)cc2)c1` [Compound 1o, 1-(4-((1H-Pyrazolo[3,4-d]pyrimidin-4-yl)oxy)phenyl)-3-(3-(methylthio)phenyl)urea], the melting point was in the range of 227.3 to 228.4 °C. On BRAF^V600E, this molecule registered an inhibition at 0.1 µM of 29% and an inhibition at 1 µM of 69%. In addition, the IC50 in the data set on A375 is > 80 µM. Further, the IC50 with HT-29 is > 80 µM. Besides, the IC50 with PC-3 was determined as 5.34 µM. The molecule further yielded a half-inhibitory concentration (IC50) in the data set with A549 of 30 µM. Also, in data set [1], the concentration for half-maximal inhibition (IC50) at 48 h was > 80 µM.
Molecule `N#Cc1cccc(NC(=O)Nc2ccc(Oc3ncnc4[nH]ncc34)cc2)c1` [Compound 1p, 1-(4-((1H-Pyrazolo[3,4-d]pyrimidin-4-yl)oxy)phenyl)-3-(3-cyanophenyl)urea] came in with a melting point of 235.2 to 237.4 °C. The inhibition at 1 µM against BRAF^V600E stood at 48%. Moreover, the IC50 in the data set with A375 was 61.8 µM. The half-maximal inhibitory concentration (IC50) with HT-29 was 39.4 µM. For the same molecule, the concentration for half-maximal inhibition (IC50) in the data set on PC-3 came to 30.9 µM. Further, the midpoint of inhibition in the data set with A549, the IC50, lay at 59.5 µM. In addition, the IC50 at 48 h in data set [1] is > 80 µM.
As for `COC(=O)c1cccc(NC(=O)Nc2ccc(Oc3ncnc4[nH]ncc34)cc2)c1` [Compound 1q, Methyl-3-(3-(4-((1H-pyrazolo[3,4-d]pyrimidin-4-yl)oxy)phenyl)ureido)benzoate], the melting point was 217.3 to 220.1 °C. For the same molecule, the inhibition at 1 µM against BRAF^V600E worked out at 32%. For the same molecule, in the data set on A375, the IC50 was > 80 µM. Also, the IC50 in the data set on HT-29 was > 80 µM. This molecule came in with an IC50 in the data set on PC-3 of 22.5 µM. The IC50 with A549 is > 80 µM. Further, the IC50 at 48 h in data set [1] was > 80 µM.
As to `Cc1ccc([N+](=O)[O-])c(NC(=O)Nc2ccc(Oc3ncnc4[nH]ncc34)cc2)c1` [Compound 1r, 1-(4-((1H-Pyrazolo[3,4-d]pyrimidin-4-yl)oxy)phenyl)-3-(5-methyl-2-nitrophenyl)urea], the melting point lay within 359.7 to 360.2 °C. The inhibition at 1 µM against BRAF^V600E was 22%. The IC50 in the data set with A375 was > 80 µM. Further, the IC50 in the data set on HT-29 was > 80 µM. Also, the IC50 with PC-3 was > 80 µM. Further, the concentration for half-maximal inhibition (IC50) with A549 was > 80 µM. The IC50 at 48 h in data set [1] was > 80 µM.
As for `O=C(Nc1ccc(Oc2ncnc3[nH]ncc23)cc1)Nc1cccc(Br)c1` [Compound 1s, 1-(4-((1H-Pyrazolo[3,4-d]pyrimidin-4-yl)oxy)phenyl)-3-(3-bromophenyl)urea], the melting point fell in the range of 234.5 to 237 °C. On BRAF^V600E, the inhibition at 0.1 µM came to 10% and testing at 1 µM gave an inhibition of 71%. In the data set with A375, this molecule displayed an IC50 of 65.4 µM. In addition, in the data set with HT-29, the IC50 was > 80 µM. The molecule also showed a half-maximal inhibitory concentration (IC50) in the data set on PC-3 of 5.52 µM. For the same molecule, the IC50 in the data set on A549 is > 80 µM. Besides, the IC50 at 48 h in data set [1] is > 80 µM.
`Cc1ccc(NC(=O)Nc2ccc(Oc3ncnc4[nH]ncc34)cc2)cc1C` [Compound 1t, 1-(4-((1H-Pyrazolo[3,4-d]pyrimidin-4-yl)oxy)phenyl)-3-(3,4-dimethylphenyl)urea]: the melting point was 249.9 to 250.6 °C. On BRAF^V600E, this molecule showed an inhibition at 0.1 µM of 28% and an inhibition at 1 µM of 89%. For the same molecule, the IC50 with A375 amounted to 75.2 µM. Further, in the data set on HT-29, the IC50 was > 80 µM. Moreover, the IC50 in the data set with PC-3 is > 80 µM. Further, the IC50 in the data set on A549 is > 80 µM. Also, the half-inhibitory concentration (IC50) at 48 h in data set [1] is > 80 µM.
For the molecule `CNC(=O)c1cc(Oc2ccc(NC(=O)Nc3ccc(Cl)c(C(F)(F)F)c3)cc2)ccn1` [Sorafenib, reference compound], the IC50 with A375 came to 6.81 µM; in the data set on HT-29 it was 8.12 µM; with PC-3, 13.8 µM; in the data set with A549 it was 13.7 µM. In data set [1], this molecule showed an IC50 at 48 h of 14.7 µM.
